Measured values published in ChEMBL document CHEMBL3856231 (J Med Chem, 2016).
Active and inactive are the calls of the source. No cut-off for these calls is given here.

Key:
[1] = Cmax in CD-1 mouse at 10 mg/kg, po by LC/MS/MS analysis; format: ADME, organism-based; set-up: dose 10 mg/kg, route oral; details: in vivo
[2] = AUC (0 to infinity) in cynomolgus monkey at 10 mg/kg, po by LC/MS/MS analysis; format: ADME, organism-based, Macaca fascicularis; set-up: dose 10 mg/kg, route oral, time infinity; details: in vivo
[3] = Clearance in Sprague-Dawley rat at 1 mg/kg, iv by LC/MS/MS analysis; format: ADME, organism-based; details: in vivo
[4] = Drug level in tumor of FAK expressing human CWR22 cells xenografted Nu/Nu mouse at 55 mg/kg, po administered as single dose measured at 12 hrs by LC-MS/MS analysis; format: ADME, organism-based, Neoplasm; details: read-out: Drug uptake
[5] = Half life in human liver microsomes by LC/MS/MS analysis; format: ADME
NCI-H2228 [6] = experiment: Antitumor activity against human NCI-H2228 cells expressing EML4-ALK xenografted in SCID-Beige mouse assessed as reduction in tumor re-emergence at 30 and 55 mg/kg, po bid for 11 days followed by switching of drug schedule to 55 mg/kg, po qd on day 12 up to day 40 and measured on day 80; format: functional, organism-based
[7] = (§1) Cytotoxicity against human NCI-H3122 cells expressing EML4-ALK assessed as cell growth inhibition; format: functional, cell-based
NCI-H3122 = experiment: as §1; format: functional, cell-based
Mus musculus [8] = experiment: Inhibition of NPM-ALK phosphorylation in human SUP-M2 cells xenografted in mouse at 30 mg/kg, po administered as single dose measured upto 24 hrs; format: functional
CTG-0142 = experiment: Antitumor activity against human CTG-0142 cells expressing activated FAK xenografted in mouse assessed as tumor stasis at 55 mg/kg, po bid administered for 28 days measured during compound dosing; format: functional, organism-based
[9] = Drug level in tumor of NPM-ALK expressing human SUP-M2 cells xenografted mouse at 30 mg/kg, po administered as single dose measured at 24 hrs by LC-MS/MS analysis; format: ADME, organism-based, Neoplasm; details: read-out: Drug uptake
[10] = Drug level in plasma of NPM-ALK expressing human SUP-M2 cells xenografted mouse at 30 mg/kg, po administered as single dose measured at 12 hrs by LC-MS/MS analysis; format: ADME, organism-based
NCI-H2228 [11] = experiment: (§2) Cytotoxicity against human NCI-H2228 cells expressing EML4-ALK assessed as cell growth inhibition; format: functional, cell-based
[12] = as §2; format: functional, cell-based
[13] = Tmax in Sprague-Dawley rat at 5 mg/kg, po by LC/MS/MS analysis; format: ADME, organism-based; details: in vivo
[14] = Antitumor activity against human CTG-0142 cells expressing activated FAK xenografted in mouse assessed as tumor growth inhibition at 55 mg/kg, po bid administered for 28 days measured during compound dosing; format: functional; details: CTG-0142, po, 672 h, read-out: TGI
Cytochrome P450 2D6 = Cytochrome P450 2D6 (Homo sapiens, UniProt P10635); experiment: Inhibition of CYP2D6 in human liver microsomes using dextromethorphan as substrate in presence of NADPH by LC/MS/MS analysis; format: ADME
IBC = experiment: Cytotoxicity against human IBC cells assessed as reduction in cell proliferation; format: functional, cell-based
HCC827 = experiment: Antitumor activity against human HCC827 cells expressing activated FAK xenografted in SCID-Beige mouse assessed as tumor growth inhibition at 30 mg/kg, po bid administered for 28 days; format: functional, organism-based
[15] = Drug level in plasma of FAK expressing human CWR22 cells xenografted Nu/Nu mouse at 55 mg/kg, po administered as single dose measured at 24 hrs by LC-MS/MS analysis; format: ADME, organism-based
[16] = Oral bioavailability in Sprague-Dawley rat at 5 mg/kg by LC/MS/MS analysis; format: ADME, organism-based; details: in vivo
[17] = AUC (0 to infinity) in Sprague-Dawley rat at 1 mg/kg, iv by LC/MS/MS analysis; format: ADME, organism-based; set-up: dose 1 mg/kg, time infinity, route intravenous; details: in vivo
[18] = Dose normalized AUC in cynomolgus monkey at 10 mg/kg, po by LC/MS/MS analysis; format: ADME, organism-based, Macaca fascicularis; details: in vivo
[19] = Half life in cynomolgus monkey liver microsomes by LC/MS/MS analysis; format: ADME, Macaca fascicularis
[20] = Apparent permeability from apical to basolateral side in human Caco2 cells; format: ADME, cell-based; details: Caco-2
[21] = Drug level in tumor of FAK expressing human CWR22 cells xenografted Nu/Nu mouse at 55 mg/kg, po administered as single dose measured at 24 hrs by LC-MS/MS analysis; format: ADME, organism-based, Neoplasm; details: read-out: Drug uptake
Cytochrome P450 2C9 = Cytochrome P450 2C9 (Homo sapiens, UniProt P11712); experiment: Inhibition of CYP2C9 in human liver microsomes using diclofenac as substrate in presence of NADPH by LC/MS/MS analysis; format: ADME
SUP-M2 [22] = experiment: Antitumor activity against human SUP-M2 cells expressing NPM-ALK xenografted in SCID-Beige mouse assessed as tumor ablation at 55 mg/kg, po qd administered for 12 days measured during compound dosing; format: functional, organism-based
[23] = Drug level in plasma of FAK expressing human CWR22 cells xenografted Nu/Nu mouse at 55 mg/kg, po administered as single dose measured at 2 hrs by LC-MS/MS analysis; format: ADME, organism-based
KARPAS-299 = experiment: Induction of apoptosis assessed as caspase 3/7 activation in human KARPAS299 expressing NPM-ALK; format: functional
[24] = Tmax in CD-1 mouse at 10 mg/kg, po by LC/MS/MS analysis; format: ADME, organism-based; details: in vivo
[25] = AUC (0 to infinity) in CD-1 mouse at 1 mg/kg, iv by LC/MS/MS analysis; format: ADME, organism-based; set-up: dose 1 mg/kg, time infinity, route intravenous; details: in vivo
[26] = Drug level in tumor of FAK expressing human CWR22 cells xenografted Nu/Nu mouse at 55 mg/kg, po administered as single dose measured at 2 hrs by LC-MS/MS analysis; format: ADME, organism-based, Neoplasm; details: read-out: Drug uptake
[27] = Dose normalized AUC in Sprague-Dawley rat at 5 mg/kg, po by LC/MS/MS analysis; format: ADME, organism-based; details: in vivo
Mus musculus [28] = experiment: Inhibition of FAK phosphorylation in human CWR22 cells xenografted in Nu/Nu mouse at 55 mg/kg, po administered as single dose by immunoblot analysis; format: functional, organism-based; details: TDE = time-dependent effect
[29] = Volume of distribution in Sprague-Dawley rat at 1 mg/kg, iv by LC/MS/MS analysis; format: ADME, organism-based; details: in vivo
[30] = Clearance in CD-1 mouse at 1 mg/kg, iv by LC/MS/MS analysis; format: ADME, organism-based; details: in vivo
SUP-M2 [31] = experiment: Antitumor activity against human SUP-M2 cells expressing NPM-ALK xenografted in po dosed SCID-Beige mouse assessed as reduction in tumor volume administered twice daily for 12 days measured during compound dosing; format: functional, organism-based

Chain of Cytochrome P450 2C9 (P11712 whole entry): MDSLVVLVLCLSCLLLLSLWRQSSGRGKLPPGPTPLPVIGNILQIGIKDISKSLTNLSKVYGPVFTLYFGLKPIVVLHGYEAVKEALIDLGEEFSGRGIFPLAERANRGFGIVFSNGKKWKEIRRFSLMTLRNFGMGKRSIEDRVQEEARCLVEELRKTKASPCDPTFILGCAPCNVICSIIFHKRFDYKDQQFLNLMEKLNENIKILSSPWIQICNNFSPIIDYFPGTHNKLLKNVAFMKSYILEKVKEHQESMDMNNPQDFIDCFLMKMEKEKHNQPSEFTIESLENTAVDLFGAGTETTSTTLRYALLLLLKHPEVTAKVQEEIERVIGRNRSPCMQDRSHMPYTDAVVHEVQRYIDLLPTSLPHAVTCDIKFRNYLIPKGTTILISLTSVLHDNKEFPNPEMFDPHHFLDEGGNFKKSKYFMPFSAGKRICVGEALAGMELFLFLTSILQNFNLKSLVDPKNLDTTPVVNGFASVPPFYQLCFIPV
Chain of Cytochrome P450 2D6 (P10635 whole entry): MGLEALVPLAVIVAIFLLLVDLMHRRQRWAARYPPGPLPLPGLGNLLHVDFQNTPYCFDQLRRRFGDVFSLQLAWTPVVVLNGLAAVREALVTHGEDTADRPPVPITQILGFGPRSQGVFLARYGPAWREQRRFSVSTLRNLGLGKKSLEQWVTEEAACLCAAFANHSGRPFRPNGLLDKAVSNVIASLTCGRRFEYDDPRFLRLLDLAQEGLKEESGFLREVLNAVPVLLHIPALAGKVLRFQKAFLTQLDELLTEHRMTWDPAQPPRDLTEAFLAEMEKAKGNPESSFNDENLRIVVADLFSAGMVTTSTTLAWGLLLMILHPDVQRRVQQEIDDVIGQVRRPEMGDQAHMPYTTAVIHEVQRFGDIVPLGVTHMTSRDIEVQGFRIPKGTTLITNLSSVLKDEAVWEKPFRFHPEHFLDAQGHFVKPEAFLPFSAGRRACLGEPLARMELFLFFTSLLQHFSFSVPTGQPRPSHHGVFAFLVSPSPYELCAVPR

Structure (SMILES): CNC(=O)c1ccccc1Nc1nc(Nc2ccc3c(c2OC)CCC[C@H](N2CCN(CCO)CC2)C3)ncc1Cl [CEP-37440]
- Cmax [1]: 1530 ng/mL
- AUC(0-inf) [2]: 2760 ng·h/mL
- clearance [3]: 3 to 4 mL/min/kg
- concentration at 12 h [4]: 3810 ng/g
- half-life [5]: 0.667 h
- Activity (NCI-H2228 [6]): Active
- IC50 [7]: 1780 nM
- growth inhibition (GI) (NCI-H3122): Dose-dependent effect
- inhibition in vivo at 30 mg/kg (Mus musculus [8]): > 85%
- Activity (CTG-0142): Active
- concentration at 24 h [9]: 8200 ng/g
- concentration at 12 h [10]: 4030 ng/mL
- growth inhibition (GI) (NCI-H2228 [11]): Dose-dependent effect
- IC50 [12]: 2900 nM
- Tmax [13]: 3.3 h
- inhibition in vivo at 55 mg/kg [14]: 75%
- IC50 (Cytochrome P450 2D6): > 5600 nM
- growth inhibition (GI) (IBC): Dose-dependent effect
- TGI (HCC827): Active
- concentration at 24 h [15]: 1190 ng/mL
- bioavailability [16]: 42%
- AUC(0-inf) [17]: 4000 ng·h/mL
- AUC/dose [18]: 276 ng·h/mL
- half-life [19]: 0.35 h
- Papp A→B [20]: > 1 ×10⁻⁶ cm/s
- concentration at 24 h [21]: 8680 ng/g
- IC50 (Cytochrome P450 2C9): > 5600 nM
- Activity (SUP-M2 [22]): Active
- concentration at 2 h [23]: 4130 ng/mL
- Activity (KARPAS-299): Active
- Tmax [24]: 2 h
- AUC(0-inf) [25]: 1610 ng·h/mL
- concentration at 2 h [26]: 6070 ng/g
- AUC/dose [27]: 1672 ng·h/mL
- inhibition (Mus musculus [28]): Tde
- Vd [29]: 0.8 L/kg
- clearance [30]: 10 mL/min/kg
- Activity (SUP-M2 [31]): Dose-dependent effect
